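Briefly, cells in 96-well plates were exposed to five compound concentrations for 48 h, and endpoints were estimated by linear interpolation. At the GI50, growth is halved.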 Active and inactive are the calls of the source. Rule as the data show it: active = GI50 up to about 1.1 µM and inactive = higher.
What was measured:
Experiment in all cases: DTP human tumour cell line panel, 48 h
CCRF-CEM = test system: CCRF-CEM
SK-MEL-5 = test system: SK-MEL-5
IGROV-1 = test system: IGROV-1
OVCAR-8 = test system: OVCAR-8
A498 = test system: A498
HOP-62 = test system: HOP-62
MOLT-4 = test system: MOLT-4
ACHN = test system: ACHN
Malme-3M = test system: Malme-3M
UO-31 = test system: UO-31
UACC-257 = test system: UACC-257
SK-MEL-2 = test system: SK-MEL-2
SNB-19 = test system: SNB-19
SN12C = test system: SN12C
LOX IMVI = test system: LOX IMVI
NCI-H522 = test system: NCI-H522
HT-29 = test system: HT-29
RXF 393 = test system: RXF 393

Structure (SMILES)	GI50 (CCRF-CEM)	GI50 (SK-MEL-5)	GI50 (IGROV-1)	GI50 (OVCAR-8)	GI50 (A498)	GI50 (HOP-62)	GI50 (MOLT-4)	GI50 (ACHN)	GI50 (Malme-3M)	GI50 (UO-31)	GI50 (UACC-257)	GI50 (SK-MEL-2)	GI50 (SNB-19)	GI50 (SN12C)	GI50 (LOX IMVI)	GI50 (NCI-H522)	GI50 (HT-29)	GI50 (RXF 393)
Cc1cccc(NC(=O)/C(=N\NC(C)(C)C)C2NC(=S)NC2=O)c1C (stereo not given)	> 100 µM (inactive)	> 100 µM (inactive)	> 100 µM (inactive)	> 100 µM (inactive)	> 100 µM (inactive)	> 100 µM (inactive)	> 100 µM (inactive)	> 100 µM (inactive)	> 100 µM (inactive)	> 100 µM (inactive)	> 100 µM (inactive)	> 100 µM (inactive)	> 100 µM (inactive)	–	–	–	–	–
CC1(C)CC23C(=O)N(c4ccccc4)C(Nc4ccccc4)=NC2=CC(C#N)=C(C#N)C3O1 (stereo not given)	48.6 µM (inactive)	28.1 µM (inactive)	> 100 µM (inactive)	99.5 µM (inactive)	26.4 µM (inactive)	82 µM (inactive)	29.3 µM (inactive)	28.8 µM (inactive)	46.3 µM (inactive)	18.6 µM (inactive)	43.3 µM (inactive)	61.5 µM (inactive)	89.9 µM (inactive)	34.8 µM (inactive)	64.4 µM (inactive)	20.1 µM (inactive)	26.9 µM (inactive)	15.2 µM (inactive)
CC1=NN(C(=O)Cc2ccccc2)C(=O)/C1=C/c1c(O)ccc2ccccc12	23.3 µM (inactive)	96.6 µM (inactive)	–	37.2 µM (inactive)	–	> 100 µM (inactive)	22.8 µM (inactive)	28.1 µM (inactive)	15.8 µM (inactive)	22.2 µM (inactive)	37.5 µM (inactive)	1.7 µM (inactive)	50.8 µM (inactive)	34.1 µM (inactive)	27.5 µM (inactive)	67.9 µM (inactive)	57.3 µM (inactive)	–
C[C@]12CCC(=O)C=C1CC[C@@H]1C2CC[C@]2(C)c3nn(-c4ccccc4)nc3CC12 (stereo not given in full)	> 100 µM (inactive)	> 100 µM (inactive)	> 100 µM (inactive)	> 100 µM (inactive)	> 100 µM (inactive)	> 100 µM (inactive)	> 100 µM (inactive)	> 100 µM (inactive)	> 100 µM (inactive)	> 100 µM (inactive)	> 100 µM (inactive)	> 100 µM (inactive)	> 100 µM (inactive)	> 100 µM (inactive)	> 100 µM (inactive)	–	> 100 µM (inactive)	> 100 µM (inactive)
BrC1=CC=C2NCCCCCC/N=C3\C=CC(Br)=CC=C3NCCCCCC/N=C\2C=C1	> 25.5 µM (inactive)	> 25.5 µM (inactive)	> 25.5 µM (inactive)	> 25.5 µM (inactive)	> 25.5 µM (inactive)	> 25.5 µM (inactive)	> 25.5 µM (inactive)	> 25.5 µM (inactive)	> 25.5 µM (inactive)	> 25.5 µM (inactive)	> 25.5 µM (inactive)	> 25.5 µM (inactive)	> 25.5 µM (inactive)	> 25.5 µM (inactive)	> 25.5 µM (inactive)	> 25.5 µM (inactive)	> 25.5 µM (inactive)	> 25.5 µM (inactive)
CCOc1ccc(/N=C/c2ccc3ccccc3n2)cc1	35.7 µM (inactive)	> 100 µM (inactive)	> 100 µM (inactive)	> 100 µM (inactive)	> 100 µM (inactive)	> 100 µM (inactive)	> 100 µM (inactive)	> 100 µM (inactive)	> 100 µM (inactive)	61.8 µM (inactive)	> 100 µM (inactive)	> 100 µM (inactive)	> 100 µM (inactive)	> 100 µM (inactive)	> 73.5 µM (inactive)	> 100 µM (inactive)	> 100 µM (inactive)	> 100 µM (inactive)
O=C(O)C1CCc2nnc(-c3ccccc3)n21 (stereo not given)	> 100 µM (inactive)	> 100 µM (inactive)	> 100 µM (inactive)	> 100 µM (inactive)	> 100 µM (inactive)	> 100 µM (inactive)	> 100 µM (inactive)	> 100 µM (inactive)	> 100 µM (inactive)	> 100 µM (inactive)	> 100 µM (inactive)	> 100 µM (inactive)	> 100 µM (inactive)	> 100 µM (inactive)	–	> 100 µM (inactive)	–	> 100 µM (inactive)
O=S(O)CCCCSSCCCCSSCCCCS(=O)O	5.9 µM (inactive)	10.7 µM (inactive)	> 100 µM (inactive)	18.9 µM (inactive)	96.6 µM (inactive)	–	0.851 µM (active)	40.9 µM (inactive)	15.8 µM (inactive)	29 µM (inactive)	10.1 µM (inactive)	24.9 µM (inactive)	> 100 µM (inactive)	42.7 µM (inactive)	12.8 µM (inactive)	13 µM (inactive)	> 10 µM (inactive)	27.2 µM (inactive)
N/C=N/S(=O)(=O)c1ccc(NC(=O)COC(=O)c2cccc3c(=O)c4ccccc4[nH]c23)cc1	> 100 µM (inactive)	> 100 µM (inactive)	> 100 µM (inactive)	> 100 µM (inactive)	–	> 100 µM (inactive)	> 100 µM (inactive)	> 100 µM (inactive)	> 100 µM (inactive)	> 100 µM (inactive)	> 100 µM (inactive)	–	> 100 µM (inactive)	> 100 µM (inactive)	> 100 µM (inactive)	> 100 µM (inactive)	> 100 µM (inactive)	> 100 µM (inactive)
CC1=C(O)C(=O)C2C(=O)C1C(C)C2c1ccccc1 (stereo not given)	> 100 µM (inactive)	> 100 µM (inactive)	> 100 µM (inactive)	> 100 µM (inactive)	> 100 µM (inactive)	> 100 µM (inactive)	> 100 µM (inactive)	> 100 µM (inactive)	> 100 µM (inactive)	> 100 µM (inactive)	> 100 µM (inactive)	> 100 µM (inactive)	> 100 µM (inactive)	–	> 100 µM (inactive)	> 100 µM (inactive)	> 100 µM (inactive)	> 100 µM (inactive)
CC(=O)Nc1ccc(/C=N\N2C(=O)c3ccccc3C2=O)cc1	> 100 µM (inactive)	> 100 µM (inactive)	> 100 µM (inactive)	> 100 µM (inactive)	> 100 µM (inactive)	> 100 µM (inactive)	> 100 µM (inactive)	> 100 µM (inactive)	> 100 µM (inactive)	> 100 µM (inactive)	> 100 µM (inactive)	> 100 µM (inactive)	> 100 µM (inactive)	> 100 µM (inactive)	> 100 µM (inactive)	–	> 100 µM (inactive)	> 100 µM (inactive)
CS(=O)(=O)CC1=Nc2nnc(CCCCCCCc3nnc4n3C(=O)C(CS(C)(=O)=O)=N4)n2C1=O	> 100 µM (inactive)	> 100 µM (inactive)	> 100 µM (inactive)	> 100 µM (inactive)	> 100 µM (inactive)	> 100 µM (inactive)	> 100 µM (inactive)	> 100 µM (inactive)	> 100 µM (inactive)	> 100 µM (inactive)	> 100 µM (inactive)	–	> 100 µM (inactive)	> 100 µM (inactive)	> 100 µM (inactive)	> 100 µM (inactive)	> 100 µM (inactive)	> 100 µM (inactive)
Cc1ccccc1NC(=O)C(=O)CC(=O)c1c(C)[n+]([O-])c2ccccc2[n+]1[O-]	–	–	> 100 µM (inactive)	> 100 µM (inactive)	> 100 µM (inactive)	> 100 µM (inactive)	–	> 100 µM (inactive)	> 100 µM (inactive)	> 100 µM (inactive)	16 µM (inactive)	> 100 µM (inactive)	> 100 µM (inactive)	> 100 µM (inactive)	–	–	> 100 µM (inactive)	> 100 µM (inactive)
CCN1CC2(C)CC[C@@H](OC)C34[C@@H]2[C@H](OC(C)=O)C2(OCO[C@@]25C[C@H](OC)C2C[C@]3(O)[C@@H]5[C@H]2O)[C@H]14	–	–	–	> 100 µM (inactive)	–	82.6 µM (inactive)	–	–	> 100 µM (inactive)	> 100 µM (inactive)	> 100 µM (inactive)	> 100 µM (inactive)	> 100 µM (inactive)	> 100 µM (inactive)	> 100 µM (inactive)	> 100 µM (inactive)	> 100 µM (inactive)	15.8 µM (inactive)
O=C1Nc2ccc([N+](=O)[O-])cc2/C1=N/Nc1ccc([N+](=O)[O-])cc1	72.1 µM (inactive)	12.2 µM (inactive)	48.2 µM (inactive)	13.8 µM (inactive)	59.3 µM (inactive)	18.3 µM (inactive)	41.6 µM (inactive)	22.3 µM (inactive)	–	26.5 µM (inactive)	21.1 µM (inactive)	30.1 µM (inactive)	17.6 µM (inactive)	–	27.5 µM (inactive)	17.2 µM (inactive)	21.4 µM (inactive)	13.7 µM (inactive)
Nc1nc2c(-c3ccc([N+](=O)[O-])cc3)nnn2c2ccccc12	> 10 µM (inactive)	–	> 100 µM (inactive)	75.9 µM (inactive)	> 100 µM (inactive)	56.5 µM (inactive)	> 100 µM (inactive)	> 100 µM (inactive)	> 100 µM (inactive)	> 100 µM (inactive)	–	> 100 µM (inactive)	17.5 µM (inactive)	> 100 µM (inactive)	> 100 µM (inactive)	–	> 100 µM (inactive)	–
COC1OC(CO)C(O)C(OC(C)=O)C1NC(=O)N(CCCl)N=O (stereo not given)	> 100 µM (inactive)	> 100 µM (inactive)	> 100 µM (inactive)	> 100 µM (inactive)	> 100 µM (inactive)	–	95.9 µM (inactive)	> 100 µM (inactive)	> 100 µM (inactive)	–	> 100 µM (inactive)	0.0112 µM (active)	> 100 µM (inactive)	> 100 µM (inactive)	55 µM (inactive)	> 100 µM (inactive)	> 100 µM (inactive)	> 100 µM (inactive)
